This is an account of results in the supplement of paper PMC10307832.

Assay in all cases: relative viability (nuclei count vs DMSO), 5 days (fraction); higher = more cells survive
Compound in the experiment “AZD5582 + Navitoclax”: C[C@@H](C(=O)N[C@@H](C1CCCCC1)C(=O)N2CCC[C@H]2C(=O)N[C@@H]3[C@@H](CC4=CC=CC=C34)OCC#CC#CCO[C@@H]5CC6=CC=CC=C6[C@@H]5NC(=O)[C@@H]7CCCN7C(=O)[C@H](C8CCCCC8)NC(=O)[C@H](C)NC)NC [AZD5582] + CC1(C)CCC(c2ccc(Cl)cc2)=C(CN2CCN(c3ccc(C(=O)NS(=O)(=O)c4ccc(N[C@H](CCN5CCOCC5)CSc5ccccc5)c(S(=O)(=O)C(F)(F)F)c4)cc3)CC2)C1 [Navitoclax] (partner 0.5 µM)
Summed up: (§1)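 Lung cancer cell lines were seeded in 1536-well plates and dosed by pin tool the next day, with either a single drug or a fixed anchor-drug dose combined with five library-drug doses (not always all listed) spaced in √10 steps. Five days later, one step fixed the cells and stained their nuclei (final 0.05% Triton X-100, 1% formaldehyde, 1 ug/ml Hoechst), and nuclei were counted on 4× images. Relative viability is the nuclei count in treated wells divided by the count in vehicle wells, and each value is the median of duplicate plates.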

Compound in the experiment “AZD5582 + Linsitinib”: C[C@@H](C(=O)N[C@@H](C1CCCCC1)C(=O)N2CCC[C@H]2C(=O)N[C@@H]3[C@@H](CC4=CC=CC=C34)OCC#CC#CCO[C@@H]5CC6=CC=CC=C6[C@@H]5NC(=O)[C@@H]7CCCN7C(=O)[C@H](C8CCCCC8)NC(=O)[C@H](C)NC)NC [AZD5582] + C[C@]1(O)C[C@@H](c2nc(-c3ccc4ccc(-c5ccccc5)nc4c3)c3c(N)nccn32)C1 [Linsitinib] (partner 1 µM)
An outline of the steps:
as §1

Compound in the experiment “AZD5582 + Palbociclib”: C[C@@H](C(=O)N[C@@H](C1CCCCC1)C(=O)N2CCC[C@H]2C(=O)N[C@@H]3[C@@H](CC4=CC=CC=C34)OCC#CC#CCO[C@@H]5CC6=CC=CC=C6[C@@H]5NC(=O)[C@@H]7CCCN7C(=O)[C@H](C8CCCCC8)NC(=O)[C@H](C)NC)NC [AZD5582] + CC(=O)c1c(C)c2cnc(Nc3ccc(N4CCNCC4)cn3)nc2n(C2CCCC2)c1=O [Palbociclib] (partner 0.5 µM)
An outline of the steps: as §1

Compound in the experiment “AZD5582 + Dasatinib”: C[C@@H](C(=O)N[C@@H](C1CCCCC1)C(=O)N2CCC[C@H]2C(=O)N[C@@H]3[C@@H](CC4=CC=CC=C34)OCC#CC#CCO[C@@H]5CC6=CC=CC=C6[C@@H]5NC(=O)[C@@H]7CCCN7C(=O)[C@H](C8CCCCC8)NC(=O)[C@H](C)NC)NC [AZD5582] + Cc1nc(Nc2ncc(C(=O)Nc3c(C)cccc3Cl)s2)cc(N2CCN(CCO)CC2)n1 [Dasatinib] (partner 0.075 µM)
An outline of the steps: as §1

Compound in the experiment “AZD5582 + Trametinib”: C[C@@H](C(=O)N[C@@H](C1CCCCC1)C(=O)N2CCC[C@H]2C(=O)N[C@@H]3[C@@H](CC4=CC=CC=C34)OCC#CC#CCO[C@@H]5CC6=CC=CC=C6[C@@H]5NC(=O)[C@@H]7CCCN7C(=O)[C@H](C8CCCCC8)NC(=O)[C@H](C)NC)NC [AZD5582] + CC(=O)Nc1cccc(-n2c(=O)n(C3CC3)c(=O)c3c(Nc4ccc(I)cc4F)n(C)c(=O)c(C)c32)c1 [Trametinib] (partner 0.02 µM)
An outline of the steps: as §1

Regarding LC-2-ad, the relative viability was 0.331 with AZD5582 + Navitoclax (first compound 0.001581 µM); 0.454 with AZD5582 + Navitoclax (first compound 0.005 µM); 0.468 in the experiment with AZD5582 + Navitoclax (first compound 0.01581 µM); 0.384 with AZD5582 + Navitoclax (first compound 0.05 µM); 0.916 with AZD5582 + Linsitinib (first compound 0.001581 µM); 0.938 with AZD5582 + Linsitinib (first compound 0.005 µM). The relative viability with AZD5582 + Linsitinib (first compound 0.01581 µM) came out at 0.911; with AZD5582 + Linsitinib (first compound 0.05 µM), 0.97; in the experiment with AZD5582 + Palbociclib (first compound 0.001581 µM), 0.465; with AZD5582 + Palbociclib (first compound 0.005 µM), 0.535; with AZD5582 + Palbociclib (first compound 0.01581 µM) it was 0.46; in the experiment with AZD5582 + Palbociclib (first compound 0.05 µM), 0.543. Also, the relative viability in the experiment with AZD5582 + Dasatinib (first compound 0.001581 µM) came out at 0.629; with AZD5582 + Dasatinib (first compound 0.005 µM), 0.774; with AZD5582 + Dasatinib (first compound 0.01581 µM), 0.461; in the experiment with AZD5582 + Dasatinib (first compound 0.05 µM), 0.531; in the experiment with AZD5582 + Trametinib (first compound 0.001581 µM) it was 0.92; with AZD5582 + Trametinib (first compound 0.005 µM), 1.04. For the same cell line, the relative viability with AZD5582 + Trametinib (first compound 0.01581 µM) came out at 0.942; with AZD5582 + Trametinib (first compound 0.05 µM), 1.04.

On to NCI-H2087, for which the relative viability with AZD5582 + Navitoclax (first compound 0.001581 µM) was 1.03; with AZD5582 + Navitoclax (first compound 0.005 µM), 0.864; with AZD5582 + Navitoclax (first compound 0.01581 µM), 1.05; with AZD5582 + Navitoclax (first compound 0.05 µM), 1.05; in the experiment with AZD5582 + Linsitinib (first compound 0.001581 µM) it was 0.879; in the experiment with AZD5582 + Linsitinib (first compound 0.005 µM), 0.948. Besides, the relative viability with AZD5582 + Linsitinib (first compound 0.01581 µM) is 0.961; with AZD5582 + Linsitinib (first compound 0.05 µM), 0.902; with AZD5582 + Palbociclib (first compound 0.001581 µM), 0.188; with AZD5582 + Palbociclib (first compound 0.005 µM), 0.23; with AZD5582 + Palbociclib (first compound 0.01581 µM), 0.225; with AZD5582 + Palbociclib (first compound 0.05 µM), 0.241. For the same cell line, the relative viability with AZD5582 + Dasatinib (first compound 0.001581 µM) is 0.7; with AZD5582 + Dasatinib (first compound 0.005 µM) it was 0.915; with AZD5582 + Dasatinib (first compound 0.01581 µM), 0.848; with AZD5582 + Dasatinib (first compound 0.05 µM) it was 0.945; with AZD5582 + Trametinib (first compound 0.001581 µM), 0.184; with AZD5582 + Trametinib (first compound 0.005 µM), 0.244. The figures for the relative viability in the experiment with AZD5582 + Trametinib (first compound 0.01581 µM) and in the experiment with AZD5582 + Trametinib (first compound 0.05 µM) were 0.163 and 0.22, respectively.

For the cell line NCI-H1944, the relative viability with AZD5582 + Navitoclax (first compound 0.001581 µM) was determined as 0.985; in the experiment with AZD5582 + Navitoclax (first compound 0.005 µM), 1.13; with AZD5582 + Navitoclax (first compound 0.01581 µM), 1.08; with AZD5582 + Navitoclax (first compound 0.05 µM), 1.11; in the experiment with AZD5582 + Linsitinib (first compound 0.001581 µM), 1.15; in the experiment with AZD5582 + Linsitinib (first compound 0.005 µM), 1.4. Moreover, the relative viability with AZD5582 + Linsitinib (first compound 0.01581 µM) came to 1.21; with AZD5582 + Linsitinib (first compound 0.05 µM), 1.44; with AZD5582 + Palbociclib (first compound 0.001581 µM), 0.274; with AZD5582 + Palbociclib (first compound 0.005 µM), 0.319; with AZD5582 + Palbociclib (first compound 0.01581 µM), 0.309; with AZD5582 + Palbociclib (first compound 0.05 µM), 0.43. Also, the relative viability with AZD5582 + Dasatinib (first compound 0.001581 µM) amounted to 0.244; with AZD5582 + Dasatinib (first compound 0.005 µM), 0.228; with AZD5582 + Dasatinib (first compound 0.01581 µM) it was 0.227; with AZD5582 + Dasatinib (first compound 0.05 µM), 0.238; in the experiment with AZD5582 + Trametinib (first compound 0.001581 µM) it was 0.36; in the experiment with AZD5582 + Trametinib (first compound 0.005 µM), 0.487. In addition, the relative viability with AZD5582 + Trametinib (first compound 0.01581 µM) turned out to be 0.406; with AZD5582 + Trametinib (first compound 0.05 µM) it was 0.485.

Turning to COR-L23, the relative viability worked out at 0.963 in the experiment with AZD5582 + Navitoclax (first compound 0.001581 µM); 1.07 with AZD5582 + Navitoclax (first compound 0.005 µM); 1 in the experiment with AZD5582 + Navitoclax (first compound 0.01581 µM); 1.22 in the experiment with AZD5582 + Navitoclax (first compound 0.05 µM); 0.937 with AZD5582 + Linsitinib (first compound 0.001581 µM); 0.957 with AZD5582 + Linsitinib (first compound 0.005 µM). The relative viability with AZD5582 + Linsitinib (first compound 0.01581 µM) turned out to be 0.913; with AZD5582 + Linsitinib (first compound 0.05 µM), 1.16; with AZD5582 + Palbociclib (first compound 0.001581 µM), 0.238; with AZD5582 + Palbociclib (first compound 0.005 µM) it was 0.329; in the experiment with AZD5582 + Palbociclib (first compound 0.01581 µM) it was 0.269; with AZD5582 + Palbociclib (first compound 0.05 µM), 0.305. Moreover, the relative viability with AZD5582 + Dasatinib (first compound 0.001581 µM) was determined as 0.432; with AZD5582 + Dasatinib (first compound 0.005 µM) it was 0.647; with AZD5582 + Dasatinib (first compound 0.01581 µM), 0.477; with AZD5582 + Dasatinib (first compound 0.05 µM), 0.53; with AZD5582 + Trametinib (first compound 0.001581 µM), 0.485; with AZD5582 + Trametinib (first compound 0.005 µM), 0.75. Further, the relative viability with AZD5582 + Trametinib (first compound 0.01581 µM) is 0.584; with AZD5582 + Trametinib (first compound 0.05 µM) it was 0.523.
